# How the values were obtained:
# [1] = system: IL-17 production in plasmas; test: IL-17 production in plasmas of cytokine-stimulated normal mice; format: in vivo, C57BL/6J mice; conditions: 0.1 mg/mL suspension, 0.2 mL/head orally, single, 28 hours before IL-1 beta/IL-23 i.v.; blood 2 hours after cytokine
# Procedure: Effects of test substances on IL-17 production in plasmas were assessed in normal mice. The assessment was performed according to Non Patent Literature 32. Nine-week old female C57BL/6J mice (Japan Charles River K. K.) were used as a test animal.
# A mixed solution prepared by mixing Recombinant Mouse IL-1 beta/IL-1F2 Protein (R&D systems, INC.) and Recombinant Mouse IL-23 Protein (R&D systems, INC.) at a final concentration of 1.5 μg/mL was administered intravenously to all groups at the tail vein at a volume of 200 μL/head. Blood was collected 2 hours after the administration of cytokine solution.
# Administration was performed 28 hours before the administration of cytokine solution. 0.5% (w/v) methyl cellulose (MC) and 0.1 mg/mL of a test substance suspended in 0.5% (w/v) MC were administered orally at a single volume of 0.2 mL/head to Vehicle group and a compound-administered group, respectively.
# Blood was separated by centrifugation, and then the IL-17 concentration in plasma was measured with Quantikine (Registered trade mark) Mouse IL-17 ELISA Kit (R&D systems, Inc.).
# The IL-17 concentration of Vehicle group was deemed to be 100%, and the IL-17 concentration percentage of the compound-administered group to the Vehicle group was calculated from the following equation.
# %=a/b×100 a: IL-17 concentration of the compound-administered group b: IL-17 concentration of the Vehicle group
# [2] = Metabolic stability in hepatocytes, human; format: in vitro ADME; conditions: residual ratio of unreacted substance, 1×10^6 cells/mL
# Procedure: A test solution was prepared by diluting 10 mM DMSO solution of a test substance with acetonitrile by 20 times.
# Human and animal cryopreserved hepatocyte (BIOIVT; Human (IVT-X008000), Rat (IVT-M00005), Monkey (IVT-M00305), Dog (IVT-M00205)) were adjusted with William's Medium E (SIGMA; W1878) to 1×10^6 cells/mL of a cell suspension, which was then added to a 96-well plate. Then, 1% of the solution of a test substance prepared was added to the reaction system, and the metabolic reaction was initiated. At a designated time, 0.1% formic acid-acetonitrile was added thereto, and the reaction was terminated.
# (§1) The sample after termination of the reaction was separated by centrifugation (1400 g, 20 min.), and then the supernatant was measured by LC/MS (UPLC-SQD (waters)) to calculate a residual ratio of unreacted substances.
# [3] = Metabolic stability in liver microsomes, rat; format: in vitro ADME; conditions: residual ratio of unreacted substance, 0.2 mg/mL microsomes, NADPH generating system
# Procedure: A test solution was prepared by diluting 10 mM DMSO solution of a test substance with acetonitrile by 100 times.
# Human and animal liver microsomes (SEKISUI XENOTECH; Human (H2610), Rat (R1000), Mouse (M1000), Monkey (P2000), Dog (D1000)) were adjusted with potassium phosphate buffer (pH 7.4) to 0.2 mg/mL in the reaction system. Then, 1% of the solution of a test substance prepared was added to the reaction system. Thereto was added an NADPH generating system (prepared according to the method of Non Patent Literature 28), and the metabolic reaction was initiated. At a designated time, 0.1% formic acid-acetonitrile/water (3:1) was added thereto, and the reaction was terminated.
# as §1
smiles,measurement,setting,value
"CC(C)C1=CN(C23CC(C(=O)O)(C2)C3)C(=O)N[C@@]1(C)c1ccc([C@@H]2C[C@H]2C(C)(C)C)c(Cl)c1 [Compound (1), 3-{(S)-4-[4-((1R,2R)-2-tert-Butyl-cyclopropyl)-3-chloro-phenyl]-5-isopropyl-4-methyl-2-oxo-3,4-dihydro-2H-pyrimidin-1-yl}bicyclo[1.1.1]pentane-1-carboxylic acid]",IL-17 concentration (%) relative to Vehicle group,[1],52%
same,"Metabolic stability in hepatocytes at 240 min., Human",[2],94%
same,"Metabolic stability in liver microsomes at 60 min., Rat",[3],103%
"CC[C@H](C)C1=CN(C23CC(C(=O)O)(C2)C3)C(=O)N[C@@]1(C)c1ccc([C@@H]2C[C@H]2C(C)(C)C)c(Cl)c1 [Compound (2), 3-{(S)-5-((S)-sec-Butyl)-4-[4-((1R,2R)-2-tert-butyl-cyclopropyl)-3-chloro-phenyl]-4-methyl-2-oxo-3,4-dihydro-2H-pyrimidin-1-yl}bicyclo[1.1.1]pentane-1-carboxylic acid]",IL-17 concentration (%) relative to Vehicle group,[1],67%
same,"Metabolic stability in hepatocytes at 240 min., Human",[2],94%
same,"Metabolic stability in liver microsomes at 60 min., Rat",[3],95%
